Results reported in article PMC7911889 (Viruses, 2021).
Like-named read-outs stand apart in the source and are kept apart here. Non-standard residues stand in square brackets, D forms with d. Residues, ends and D or L forms follow the SMILES beside them. *: point of attachment. Nva = CCC[C@H](N)C(=O)O; Cbz = O=C(OCc1ccccc1)*

Experiments:
in vitro = conditions: human
[1] = test system: 293T human embryonic kidney cells
cell culture = conditions: cited from earlier work
SARS-CoV-2 = test system: SARS-CoV-2; parameters: method as in per compound as in References column of Table 1; conditions: read-out: Reported EC50 for inhibition of SARS-CoV-2 replication in cell culture; cited from earlier work
[2] = transfected 293T cells (human embryonic kidney)
[3] = read-out: CC50, CellTiter-Glo 2.0 assay, transfected 293T cells, 30 h post-transfection

`COc1ccc2c(O[C@@H]3C[C@H]4C(=O)N[C@]5(C(=O)NS(=O)(=O)C6CC6)C[C@H]5/C=C\CCCCN(C)C(=O)[C@@H]4C3)cc(-c3nc(C(C)C)cs3)nc2c1C` [Simeprevir] showed a CC50 at 30 h post-transfection (in vitro) of 19.6 µM.
In the case of `CSCC[C@@H](C=O)NC(=O)[C@H](CC(C)C)NC(=O)[C@H](CC(C)C)NC(C)=O` [Calpain Inhibitor II] (Ac-Leu-Leu-Met-aldehyde), the CC50 [1] is listed as greater than 100 µM and the “Reported CC50 (corresponding to reported EC50)” value (“Reported CC50” below) (cell culture) is listed as greater than 100 µM.
In the case of `Cn1nc(-c2ccc(C(F)(F)F)cc2)nc2c(=O)n(C)c(=O)nc1-2` [Walrycin B], the CC50 [1] is given as 29 µM and the “Reported CC50” value (cell culture) is given as 4.3 µM.
In the case of `Cc1ccc(C(=O)Nc2ccc(S(=O)(=O)O)c3cc(S(=O)(=O)O)cc(S(=O)(=O)O)c23)cc1NC(=O)c1cccc(NC(=O)Nc2cccc(C(=O)Nc3cc(C(=O)Nc4ccc(S(=O)(=O)O)c5cc(S(=O)(=O)O)cc(S(=O)(=O)O)c45)ccc3C)c2)c1` [Suramin], the EC50 (SARS-CoV-2) is given as 20 µM, the CC50 (in vitro) is given as greater than 100 µM and the “Reported CC50” value (cell culture) is given as >20–>5000.
In the case of `Brc1c(Br)c(Br)c2n[nH]nc2c1Br` [TBB], the “Reported CC50” value (cell culture) is listed as 8.9 µM.
Molecule `COc1cccc2c1C(=O)c1c(O)c3c(c(O)c1C2=O)C[C@@](O)(C(=O)CO)C[C@@H]3O[C@H]1C[C@H](N)[C@H](O)[C@H](C)O1` [doxorubicin] has a CC50 at 30 h post-transfection (in vitro; [2]) of 3.7 µM.
With `CC(C)(C)NC(=O)[C@@H]1CN(Cc2cccnc2)CCN1C[C@@H](O)C[C@@H](Cc1ccccc1)C(=O)N[C@H]1c2ccccc2C[C@H]1O` [Indinavir] the CC50 (in vitro) was greater than 100 µM.
For GRL-0496, the CC50 [1] is listed as 53.2 µM, the EC50 (SARS-CoV-2) is listed as 9.1 µM and the “Reported CC50” value (cell culture) is listed as 81.0 µM.
In the case of `CC(NC(=O)[C@H](Cc1ccccc1)NC(=O)OCc1ccccc1)C(=O)CF` (stereo partly drawn) [Z-FA-FMK], the CC50 [1, 3] is listed as greater than 100 µM and the “Reported CC50” value (cell culture) is listed as greater than 20 µM.
Molecule `Cc1c(O)cccc1C(=O)N[C@@H](CSc1ccccc1)[C@H](O)CN1C[C@H]2CCCC[C@H]2C[C@H]1C(=O)NC(C)(C)C` [Nelfinavir] has a CC50 (in vitro) of 11.2 µM.
Molecule `C=C[C@@H]1C[C@]1(NC(=O)[C@@H]1C[C@@H](Oc2ncc(OC)c3ccc(Cl)cc23)CN1C(=O)[C@@H](NC(=O)OC(C)(C)C)C(C)(C)C)C(=O)NS(=O)(=O)C1CC1` [Asunaprevir] has a CC50 (in vitro) of 31.5 µM.
Molecule `O=c1cc(-c2ccccc2)oc2cc(O)c(O)c(O)c12` [Baicalein] has a CC50 (in vitro) greater than 100 µM.
Work on `CC(C)CN(C[C@@H](O)[C@H](Cc1ccccc1)NC(=O)O[C@H]1CCOC1)S(=O)(=O)c1ccc(N)cc1` [Amprenavir] yielded a CC50 at 30 h post-transfection (in vitro) greater than 100 µM.
For `O=C(Oc1cncc(Cl)c1)c1cccs1` [MAC 5576], the CC50 [1] is given as greater than 100 µM and the “Reported CC50” value (cell culture) is given as greater than 100 µM.
With `CC(C)(C)NC(=O)[C@@H]1C[C@@H]2CCCC[C@@H]2CN1C[C@@H](O)[C@H](Cc1ccccc1)NC(=O)[C@H](CC(N)=O)NC(=O)c1ccc2ccccc2n1` [Saquinavir] the CC50 (in vitro) was 27.3 µM.
`C=C[C@@H]1C[C@]1(NC(=O)[C@@H]1C[C@@H]2CN1C(=O)[C@H](C(C)(C)C)NC(=O)O[C@@H]1C[C@H]1CCCCCc1nc3ccc(OC)cc3nc1O2)C(=O)NS(=O)(=O)C1CC1` [Grazoprevir] gave a CC50 [1] of 57.4 µM.
In the case of `O=C1C(Cl)=C(NCCN2CCOCC2)C(=O)c2ncccc21` [DA-3003-1], the CC50 [1, 3] is listed as 7.7 µM and the “Reported CC50” value (cell culture) is listed as 7.7 µM.
In the case of `O.O=C(OC[C@H]1O[C@@H](OC(=O)c2cc(O)c(O)c(O)c2)[C@H](OC(=O)c2cc(O)c(O)c(O)c2)[C@@H](OC(=O)c2cc(O)c(O)c(O)c2)[C@@H]1OC(=O)c1cc(O)c(O)c(O)c1)c1cc(O)c(O)c(O)c1` [penta-O-galloyl-beta-D-glucose hydrate], the CC50 [1] is given as 30.4 µM and the “Reported CC50” value (cell culture) is given as 11.2 µM.
In the case of `CC(C)C[C@H](NC(=O)OCc1ccccc1)C(=O)N[C@@H](CC1CCNC1=O)C(O)S(=O)(=O)O` (stereo partly drawn) [GC376], the CC50 [1] is given as greater than 100 µM and the EC50 (SARS-CoV-2) is given as 0.2 to 4.5 µM.
Molecule `Cc1cccc(C)c1OCC(=O)N[C@@H](Cc1ccccc1)[C@@H](O)C[C@H](Cc1ccccc1)NC(=O)[C@H](C(C)C)N1CCCNC1=O` [Lopinavir] has a CC50 (in vitro) of 29.1 µM.
`CCN(CC)CCCC(C)Nc1c2ccc(Cl)cc2nc2ccc(OC)cc12` (stereo not drawn) [Quinacrine] gave a CC50 (in vitro) of 2.5 µM.
In the case of `CC(C)C[C@H](NC(=O)OCc1ccccc1)C(=O)N[C@@H](C[C@@H]1CCNC1=O)C(O)S(=O)(=O)[O-].[Na+]` (stereo partly drawn) [GC376], the “Effect on cell viability (in words)” value [1] is given as “no significant effect on cell viability up to 100 µM” and the “Reported CC50” value (cell culture) is given as >100–>200.
Molecule `COC(=O)N[C@H](C(=O)N[C@@H](Cc1ccccc1)[C@@H](O)CN(Cc1ccc(-c2ccccn2)cc1)NC(=O)[C@@H](NC(=O)OC)C(C)(C)C)C(C)(C)C` [Atazanavir] has a CC50 at 30 h post-transfection (in vitro) greater than 100 µM.
Molecule `CCC[C@@]1(CCc2ccccc2)CC(O)=C([C@H](CC)c2cccc(NS(=O)(=O)c3ccc(C(F)(F)F)cn3)c2)C(=O)O1` [Tipranavir] has a CC50 at 30 h post-transfection (in vitro) of 85.1 µM.
With `O=c1c2ccccc2[se]n1-c1ccccc1` [Ebselen] the CC50 (in vitro) was 8 µM.
In the case of `CCC[C@@H](C=O)NC(=O)[C@H](CC(C)C)NC(=O)[C@H](CC(C)C)NC(=O)OCc1ccccc1` [MG-115] (Cbz-Leu-Leu-[Nva]-aldehyde), the CC50 [1, 3] is given as 11 µM and the “Reported CC50” value (cell culture) is given as 1.1 µM.
With `Cc1ccc(NC(=O)c2ccc(CN3CCN(C)CC3)cc2)cc1Nc1nc(-c2cccnc2)cs1` [Masitinib] the CC50 at 30 h post-transfection (in vitro; [2]) was 3 µM.
For `CCCC(NC(=O)C(CC(C)C)NC(=O)OCc1ccccc1)C(=O)C(=O)NCc1ccccn1` (stereo not drawn) [Calpain Inhibitor XII], the CC50 [1] is listed as greater than 100 µM and the “Reported CC50” value (cell culture) is listed as greater than 100 µM.
For `COc1cc(C)c2c(Oc3cccc(C(F)(F)F)c3)c(OC)cc(NC(C)CCCN)c2n1` (stereo not drawn) [Tafenoquine], the CC50 at 30 h post-transfection (in vitro) is listed as 2 µM and the “Reported CC50” value (cell culture) is listed as 37.2 µM.
In the case of `COc1ccc2cc(-c3cc(-c4cc(Cl)cc(Cl)c4)nn3[C@@H](C)c3ccc(C(=O)NCCC(=O)O)cc3)ccc2c1` [MK 0893], the EC50 (SARS-CoV-2) is listed as 3.2 µM, the CC50 (in vitro) is listed as 42.3 µM and the “Reported CC50” value (cell culture) is listed as 12.6 µM.
In the case of `CC(C)(C)NC(=O)N[C@H](C(=O)N1C[C@H]2[C@@H]([C@H]1C(=O)NC(CC1CCC1)C(=O)C(N)=O)C2(C)C)C(C)(C)C` (stereo partly drawn) [Boceprevir], the CC50 at 30 h post-transfection (in vitro) is listed as greater than 100 µM and the “Reported CC50” value (cell culture) is listed as >100–>200.
For `CC(C)CN(C[C@@H](O)[C@H](Cc1ccccc1)NC(=O)O[C@H]1CO[C@H]2OCC[C@H]21)S(=O)(=O)c1ccc(N)cc1` [Darunavir], the EC50 (SARS-CoV-2) is given as 46.4 µM.
`CCC[C@H](NC(=O)[C@@H]1[C@H]2CCC[C@H]2CN1C(=O)[C@@H](NC(=O)[C@@H](NC(=O)c1cnccn1)C1CCCCC1)C(C)(C)C)C(=O)C(=O)NC1CC1` [Telaprevir] showed a CC50 at 30 h post-transfection (in vitro; [2]) of 71.5 µM.
